Source: US9023789B2, “Amylin analogs and pharmaceutical compositions thereof” (Novo Nordisk A/S, priority 2012, dated 2015)
Converted amounts (≈) assume the structure as drawn. Read-outs that look alike come from different tables or passages of the source. Numbered stars: 1 amine (or outer) side, 2 acyl side, 3 side chain; on linkers, the order of the positions; unused ones are H or OH. Bridge positions count the residues as written; N and C are the ends. Peptide text beside a SMILES is read from it. * marks the point of attachment. C20 diacid = O=C(O)CCCCCCCCCCCCCCCCCCC(=O)*; γGlu = O=C(O)[C@H](CCC(=O)[*:2])N[*:1]

Legend:
[1] = biological target: T1, rat amylin receptor (rat calcitonin receptor + rat RAMP 3) (Rattus norvegicus, UniProt P32214+Q9JJ73); test: ASSAY (VI) binding to the rat amylin receptor; settings: for IC50: binding to rat amylin receptor, read-out: rAmylin-R bind IC50
T1 construct: expressed in transfected cells; host or cells: BHK tk'ts 13 (transient, FuGENE 6), membranes
T1 sequence (P32214 25-479 isoform P32214-2 limits assumed): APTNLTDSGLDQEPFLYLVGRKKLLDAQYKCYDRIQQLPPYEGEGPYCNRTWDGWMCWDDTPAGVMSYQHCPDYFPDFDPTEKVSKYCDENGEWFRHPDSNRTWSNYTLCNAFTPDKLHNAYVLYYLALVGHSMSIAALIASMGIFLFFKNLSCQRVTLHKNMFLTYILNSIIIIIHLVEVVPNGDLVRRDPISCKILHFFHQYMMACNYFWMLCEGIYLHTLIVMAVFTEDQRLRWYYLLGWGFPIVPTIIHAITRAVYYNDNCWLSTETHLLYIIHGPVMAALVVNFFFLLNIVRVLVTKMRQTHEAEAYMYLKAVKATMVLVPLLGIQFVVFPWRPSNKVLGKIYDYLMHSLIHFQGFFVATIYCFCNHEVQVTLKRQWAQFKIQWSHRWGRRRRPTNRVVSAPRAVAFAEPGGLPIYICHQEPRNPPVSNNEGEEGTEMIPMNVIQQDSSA
T1 sequence (Q9JJ73 23-147 partner): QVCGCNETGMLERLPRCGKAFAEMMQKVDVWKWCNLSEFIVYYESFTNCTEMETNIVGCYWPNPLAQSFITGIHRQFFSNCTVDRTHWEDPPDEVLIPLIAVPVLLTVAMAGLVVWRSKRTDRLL
Procedure, shortened: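 This assay measured binding to the rat amylin receptor. BHK tk′ts 13 cells were transiently transfected with the rat calcitonin receptor using FuGENE® 6 (Roche), following the manufacturer's recommendations. About 48 hours after transfection, the cells were harvested and membranes were prepared from them for the binding determination.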

[2] = biological target: T2, rat calcitonin receptor (Rattus norvegicus, UniProt P32214); test: ASSAY (VIII) binding to the rat calcitonin receptor; settings: Table 7, read-out: rCTR bind IC50
T2 construct: expressed in transfected cells; host or cells: BHK tk'ts 13 (transient, FuGENE 6), membranes
T2 sequence (P32214 25-479 isoform P32214-2 limits assumed): T1 sequence (P32214 25-479 isoform P32214-2 limits assumed)
Procedure, shortened: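 Membranes were prepared from BHK tk′ts 13 cells transiently transfected with rat calcitonin receptor. Cells were grown in DMEM with 10% FBS and harvested approximately 48 hours after transfection.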

[3] = ASSAY (IV) determination of solubility; format: physicochemical
Procedure, shortened: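 Polypeptide in water at […] mixed 1:1 with 100 mM buffers of pH 3.0-8.0 (glycylglycine pH 3-5, bistrispropane pH 6-8). Held 18 h at room temperature, then centrifuged; concentration remaining in solution measured by UPLC.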

[4] = biological target: T3, human amylin receptor (membranes from Amylin 3(a)/CRE-luc cells) (Homo sapiens, UniProt O60896+P30988); test: ASSAY (V) binding to the human amylin receptor (SPA, 125I-rat amylin);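 further: competition binding of cell membranes (35 ng/µL) mixed with SPA beads in 384-well plates at 40 µL total volume, read by scintillation counting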
T3 construct: expressed in transfected cells
T3 sequence (P30988 25-474): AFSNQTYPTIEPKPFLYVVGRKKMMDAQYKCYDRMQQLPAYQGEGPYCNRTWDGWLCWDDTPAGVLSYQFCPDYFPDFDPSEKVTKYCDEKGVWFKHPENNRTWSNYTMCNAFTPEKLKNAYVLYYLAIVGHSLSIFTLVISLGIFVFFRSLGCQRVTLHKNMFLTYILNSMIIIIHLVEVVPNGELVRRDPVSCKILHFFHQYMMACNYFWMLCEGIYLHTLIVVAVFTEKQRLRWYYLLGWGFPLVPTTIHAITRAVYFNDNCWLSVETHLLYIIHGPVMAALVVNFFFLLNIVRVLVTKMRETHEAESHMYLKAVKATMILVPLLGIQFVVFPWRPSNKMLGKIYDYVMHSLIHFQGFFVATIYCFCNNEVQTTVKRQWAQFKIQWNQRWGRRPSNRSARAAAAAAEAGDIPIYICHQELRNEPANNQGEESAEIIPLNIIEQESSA
T3 sequence (O60896 24-148 partner): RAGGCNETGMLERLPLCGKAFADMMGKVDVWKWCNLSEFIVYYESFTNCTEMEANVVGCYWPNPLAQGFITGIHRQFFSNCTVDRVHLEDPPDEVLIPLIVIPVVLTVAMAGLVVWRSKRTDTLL

[5] = Table 7, rat binding selectivity, rCTR IC50 / rAmylin-R IC50
[6] = Table 7a (preferred compounds), rat binding selectivity, rCTR IC50 / rAmylin-R IC50
[7] = ratio of rCTR bind IC50 to rAmylin-R bind IC50
[8] = bistrispropane buffer, pH 6.5, read-out: Solubility pH 6.5 Concentration
[9] = bistrispropane buffer, pH 7.5, read-out: Solubility pH 7.5 Concentration
[10] = bistrispropane buffer, pH 6.0, read-out: Solubility pH 6.0 Concentration
[11] = bistrispropane buffer, pH 7.0, read-out: Solubility pH 7.0 Concentration
[12] = bistrispropane buffer, pH 8.0, read-out: Solubility pH 8.0 Concentration
[13] = glycylglycine buffer, pH 3.0, read-out: Solubility pH 3.0 Concentration
[14] = glycylglycine buffer, pH 4.0, read-out: Solubility pH 4.0 Concentration
[15] = glycylglycine buffer, pH 5.0, read-out: Solubility pH 5.0 Concentration
[16] = Table 5, selectivity, hCTR bind IC50 / hAmylin-R bind IC50
[17] = Table 5a, selectivity, hCTR bind IC50 / hAmylin-R bind IC50
[18] = Table 5b, selectivity, hCTR bind IC50 / hAmylin-R bind IC50
[19] = Table 5c, selectivity, hCTR bind IC50 / hAmylin-R bind IC50
[20] = Table 7, human binding selectivity, included for comparison
[21] = Table 7a (preferred compounds), human binding selectivity, included for comparison
[22] = ratio of human calcitonin receptor binding IC50 to human amylin receptor binding IC50

| IC50 ([1]; Table 7) | Ratio rCT/rAmylin binding [1, 5] | Ratio rCT/rAmylin binding [1, 6] | Ratio rCT/rAmylin binding [1, 7] | IC50 [2] | solubility at 18 h [3, 8] | solubility at 18 h [3, 9] | solubility at 18 h [3, 10] | solubility at 18 h [3, 11] | solubility at 18 h [3, 12] | solubility at 18 h [3, 13] | solubility at 18 h [3, 14] | solubility at 18 h [3, 15] | Ratio hCT/hAmylin binding [4, 16] | Ratio hCT/hAmylin binding [4, 17] | Ratio hCT/hAmylin binding [4, 18] | Ratio hCT/hAmylin binding [4, 19] | Ratio hCT/hAmylin binding [4, 20] | Ratio hCT/hAmylin binding [4, 21] | Ratio hCT/hAmylin binding [4, 22] | Compound |
| --- | --- | --- | --- | --- | --- | --- | --- | --- | --- | --- | --- | --- | --- | --- | --- | --- | --- | --- | --- | --- |
| 0.00301 µM | 116.3 | 116.3 | 116.3 | 0.35 µM | ≥ 200 µM | ≥ 200 µM | ≥ 200 µM | ≥ 200 µM | ≥ 200 µM | ≥ 200 µM | ≥ 200 µM | ≥ 200 µM | 90.0 | 90.0 | 90.0 | 90.0 | 90.0 | 90.0 | 90.0 | CC[C@H](C)[C@H](NC(=O)[C@H](C)NC(=O)CNC(=O)[C@H](Cc1ccccc1)NC(=O)[C@H](CC(N)=O)NC(=O)[C@@H]1CCCN1C(=O)[C@H](CO)NC(=O)[C@H](CO)NC(=O)[C@H](Cc1c[nH]cn1)NC(=O)[C@H](CCCNC(=N)N)NC(=O)[C@H](CC(C)C)NC(=O)[C@H](Cc1ccccc1)NC(=O)[C@H](CC(N)=O)NC(=O)[C@H](C)NC(=O)[C@H](CC(C)C)NC(=O)[C@H](CCCNC(=N)N)NC(=O)[C@H](CCC(N)=O)NC(=O)[C@@H](NC(=O)[C@H](C)NC(=O)[C@@H]1CSSC[C@H](NC(=O)[C@H](CCCCN)NC(=O)COCCOCCNC(=O)COCCOCCNC(=O)CC[C@H](NC(=O)CCCCCCCCCCCCCCCCCCC(=O)O)C(=O)O)C(=O)N[C@@H](CC(N)=O)C(=O)N[C@@H]([C@@H](C)O)C(=O)N[C@@H](C)C(=O)N[C@@H]([C@@H](C)O)C(=O)N1)[C@@H](C)O)C(=O)N1CCC[C@H]1C(=O)N[C@@H](CO)C(=O)N[C@@H](CO)C(=O)N[C@H](C(=O)N[C@@H](CC(N)=O)C(=O)N[C@H](C(=O)NCC(=O)N[C@@H](CO)C(=O)N[C@@H](CC(N)=O)C(=O)N[C@H](C(=O)N[C@@H](Cc1ccc(O)cc1)C(N)=O)[C@@H](C)O)C(C)C)[C@@H](C)O [Example 24] |
| 0.00121 µM | 45.6 | 45.6 | 45.6 | 0.0552 µM | ≥ 200 µM | ≥ 200 µM | ≥ 200 µM | ≥ 200 µM | ≥ 200 µM | ≥ 200 µM | ≥ 200 µM | ≥ 200 µM | 19.1 | 19.1 | 19.1 | – | 19.1 | 19.1 | 19.1 | CC[C@H](C)[C@H](NC(=O)[C@H](C)NC(=O)CNC(=O)[C@H](Cc1ccccc1)NC(=O)[C@H](CC(N)=O)NC(=O)[C@@H]1CCCN1C(=O)[C@H](CO)NC(=O)[C@H](CO)NC(=O)[C@H](Cc1c[nH]cn1)NC(=O)[C@H](CCCNC(=N)N)NC(=O)[C@H](CC(C)C)NC(=O)[C@H](Cc1ccccc1)NC(=O)[C@H](CCC(=O)O)NC(=O)[C@H](C)NC(=O)[C@H](CC(C)C)NC(=O)[C@H](CCCNC(=N)N)NC(=O)[C@H](CCC(N)=O)NC(=O)[C@@H](NC(=O)[C@H](C)NC(=O)[C@@H]1CSSC[C@H](NC(=O)[C@H](CCCCN)NC(=O)CC[C@H](NC(=O)CCCCCCCCCCCCCCCCCCC(=O)O)C(=O)O)C(=O)N[C@@H](CC(N)=O)C(=O)N[C@@H]([C@@H](C)O)C(=O)N[C@@H](C)C(=O)N[C@@H]([C@@H](C)O)C(=O)N1)[C@@H](C)O)C(=O)N1CCC[C@H]1C(=O)N[C@@H](CO)C(=O)N[C@@H](CO)C(=O)N[C@H](C(=O)N[C@@H](CC(N)=O)C(=O)N[C@H](C(=O)NCC(=O)N[C@@H](CO)C(=O)N[C@@H](CCCNC(=N)N)C(=O)N[C@H](C(=O)N[C@@H](Cc1ccc(O)cc1)C(N)=O)[C@@H](C)O)C(C)C)[C@@H](C)O [Example 16] ({C20 diacid-γGlu}-KCNTATCATQRLAEFLRHSSPNFGAIPSSTNVGSRTY-NH2; disulfide 2-7) |
| 0.000215 µM | 122.4 | 122.4 | 122.4 | 0.0263 µM | ≥ 200 µM | 186 µM (≈ 819 µg/mL) | ≥ 200 µM | ≥ 200 µM | 98 µM (≈ 432 µg/mL) | ≥ 200 µM | ≥ 200 µM | ≥ 200 µM | 45.2 | 45.2 | 45.2 | 45.2 | 45.2 | 45.2 | 45.2 | CC[C@H](C)[C@H](NC(=O)[C@H](C)NC(=O)CNC(=O)[C@H](Cc1ccccc1)NC(=O)[C@H](CC(N)=O)NC(=O)[C@@H]1CCCN1C(=O)[C@H](CO)NC(=O)[C@H](CO)NC(=O)[C@H](Cc1c[nH]cn1)NC(=O)[C@H](CCCNC(=N)N)NC(=O)[C@H](CC(C)C)NC(=O)[C@H](Cc1ccccc1)NC(=O)[C@H](CC(N)=O)NC(=O)[C@H](C)NC(=O)[C@H](CC(C)C)NC(=O)[C@H](CCCNC(=N)N)NC(=O)[C@H](CCC(N)=O)NC(=O)[C@@H](NC(=O)[C@H](C)NC(=O)[C@@H]1CSSC[C@H](NC(=O)[C@@H](N)CCCCNC(=O)CC[C@H](NC(=O)CCCCCCCCCCCCCCCCCCC(=O)O)C(=O)O)C(=O)N[C@@H](CC(N)=O)C(=O)N[C@@H]([C@@H](C)O)C(=O)N[C@@H](C)C(=O)N[C@@H]([C@@H](C)O)C(=O)N1)[C@@H](C)O)C(=O)N1CCC[C@H]1C(=O)N[C@@H](CO)C(=O)N[C@@H](CO)C(=O)N[C@H](C(=O)N[C@@H](CC(N)=O)C(=O)N[C@H](C(=O)NCC(=O)N[C@@H](CO)C(=O)N[C@@H](Cc1c[nH]cn1)C(=O)N[C@H](C(=O)N[C@@H](Cc1ccc(O)cc1)C(N)=O)[C@@H](C)O)C(C)C)[C@@H](C)O [Example 60] |
